Experimental data published in paper PMC6694038, “Pharmacogenomic–pharmacokinetic study of selective estrogen-receptor modulators with intra-patient dose escalation in breast cancer” (Breast Cancer (Tokyo, Japan), 2019).

Legend:
[1] = Plasma concentrations of TAM, TOR and their metabolites by LC–MS/MS (screening study)
[2] = weighting of plasma concentration; cited from earlier work
[3] = patients homozygous for CYP2D6 PM genotype on double dose (40 mg) of TAM; cited from earlier work
[4] = 14 poor TAM metabolizers enrolled in the dose-escalation study
[5] = patients on TAM 20 mg a day, N=182

## CC/C(=C(\c1ccc(O)cc1)c1ccc(OCCNC)cc1)c1ccccc1 [Endoxifen, endoxifen]
[1]; [4]
  Endoxifen on TAM 20 mg, max: 12.6 ng/mL
  Endoxifen on TAM 20 mg, mean: 9.7 ng/mL
  Endoxifen on TAM 20 mg, median: 10.4 ng/mL
  Endoxifen on TAM 20 mg, min: 1.8 ng/mL
[1]; among the 182 patients on TAM
  Patients with endoxifen levels lower than 15 ng/mL: 50
[1]; of the 273 participating patients
  Patients with endoxifen levels < 7.5 ng/mL: 11
[1]; [5]
  Plasma concentration, max: 64.5 ng/mL
  Plasma concentration, mean: 23.5 ng/mL
  Plasma concentration, median: 22.8 ng/mL
  Plasma concentration, min: 1.8 ng/mL
[1]; patients taking TAM 20 mg a day
  Plasma concentration, variability (range): 1.8 to 64.5 ng/mL
[2]
  In vitro activity factor in the total activity of TAM (TAM = 1.0): 46.3
[3]
  Endoxifen concentration relative to EMs: less than one-half of the endoxifen concentrations for EMs
